Patent US5965372A, “Genetic sequences encoding glucocorticoid dehydrogenases and uses thereof” (Baker Medical Research Institute, priority 1996, dated 1999)

Assays:
11βHSD2 [1] = target: T1, 11βHSD2 (Homo sapiens, UniProt P80365); assay: Directionality and end product inhibition in intact pHSD2 transfected CHOP cells; assay type: cell-based; conditions: monolayer cultures, 1.5 hours at 37° C., 1-2 nM labelled substrate, TLC
T1 construct: homogenates or intact cells
T1 sequence (P80365 1-405 V148L): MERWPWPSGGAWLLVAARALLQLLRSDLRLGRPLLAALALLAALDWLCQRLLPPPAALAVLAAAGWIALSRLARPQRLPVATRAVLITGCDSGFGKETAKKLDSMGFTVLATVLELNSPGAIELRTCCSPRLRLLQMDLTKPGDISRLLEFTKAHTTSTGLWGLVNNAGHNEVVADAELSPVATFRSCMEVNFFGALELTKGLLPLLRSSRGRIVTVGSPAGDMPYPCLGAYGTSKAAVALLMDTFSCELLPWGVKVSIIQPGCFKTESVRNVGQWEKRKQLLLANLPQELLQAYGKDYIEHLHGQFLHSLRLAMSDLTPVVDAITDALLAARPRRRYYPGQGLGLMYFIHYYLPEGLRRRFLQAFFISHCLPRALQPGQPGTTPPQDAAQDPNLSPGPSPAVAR
Experimental: To determine directionality and extent of end production inhibition of the enzyme encoded by pHSD2, monolayer cultures of transfected CHOP cells were incubated for 1.5 hours at 37° C. with 1-2 nM labelled substrates plus 10 nM corresponding unlabelled 11-dehydro metabolite (FIG. 2b). The culture medium was then removed, extracted and assayed by TLC for the presence of the 11-dehydro metabolite.
Dehydrogenase activity was also estimated in the presence of an excess of the respective 11-dehydro metabolite (FIG. 2b, III).

11βHSD2 [2] = target: T1, 11βHSD2; assay: Cofactor specificity of glucocorticoid metabolism in homogenates of pHSD2 transfected CHOP cells; assay type: biochemical; conditions: 1 mM NAD+ or 1 mM NADP+, 37° C. for 40 minutes, TLC
Experimental: CHOP cells were transfected with plasmid pHSD2, which contains an insert encoding 11βHSD2. After 60 hours incubation in 85 mm plates, cellular homogenates were prepared and assayed for their ability to metabolise glucocorticoid substrates in the presence of 1 mM NAD+, or 1 mM NADP+. Confluent cells were homogenised in 1 ml of homogenisation buffer (0.25 M sucrose, 10 MM phosphate, pH 7). Reaction mixtures (500 μl) contained either 40 μl of homogenate plus [^3 H]corticosterone, or 80 μl of homogenate plus [^3 H]cortisol, or 120 μl of homogenate plus [^3 H]dexamethasone, in homogenisation buffer. All reactions contained 1-2 nM tritiated glucocorticoid substrate plus 10 nM unlabelled glucocorticoid substrate. Reaction mixtures were incubated at 37° C. for 40 minutes and steroid metabolites were assayed by thin layer chromatography.

11βHSD2 [3] = target: T1, 11βHSD2; assay: Km determination in homogenates of pHSD2 transfected CHOP cells; assay type: biochemical; conditions: double reciprocal plot, 37° C., mean±SD, n=3
From the text: The efficiency of the dehydrogenase may be further increased by mechanisms such as intracellular compartmentalisation of the enzyme.

| Km (11βHSD2 [3]) [nM] | Structure (SMILES) | metabolite formation by intact transfected CHOP cells (11βHSD2 [1]) | glucocorticoid metabolism to 11-dehydro metabolite, cofactor dependence (11βHSD2 [2]) |
| --- | --- | --- | --- |
| – | C[C@]12CC(=O)[C@H]3[C@@H](CCC4=CC(=O)CC[C@@]43C)[C@@H]1CC[C@@H]2C(=O)CO [11-dehydro corticosterone] | no metabolite formed | – |
| 5.1 ± 1.2 | C[C@]12C[C@H](O)[C@H]3[C@@H](CCC4=CC(=O)CC[C@@]43C)[C@@H]1CC[C@@H]2C(=O)CO [corticosterone] | converted | only showed significant glucocorticoid metabolism when NAD+, but not NADP+, was included as a cofactor |
| – | C[C@]12CCC(=O)C=C1CC[C@@H]1[C@@H]2[C@@H](O)C[C@@]2(C)[C@H]1CC[C@]2(O)C(=O)CO [cortisol] | converted | only showed significant glucocorticoid metabolism when NAD+, but not NADP+, was included as a cofactor |
| – | C[C@]12CCC(=O)C=C1CC[C@@H]1[C@@H]2C(=O)C[C@@]2(C)[C@H]1CC[C@]2(O)C(=O)CO [cortisone] | no metabolite formed | – |
| – | C[C@@H]1C[C@H]2[C@@H]3CCC4=CC(=O)C=C[C@]4(C)[C@@]3(F)[C@@H](O)C[C@]2(C)[C@@]1(O)C(=O)CO [dexamethasone] | – | only showed significant glucocorticoid metabolism when NAD+, but not NADP+, was included as a cofactor |
